Source: patent US10342796B2, “Acrylanilide derivative, preparation method, and applications thereof in pharmacy” (Ancureall Pharmaceutical (Shanghai) Co., Ltd., priority 2015, dated 2019)
Like-named read-outs stand apart in the source and are kept apart here.

Key:
Test in all cases: Growth inhibition GI50 in vitro (CCK8/MTT, 72 h)
HCC827 (EGFR dE746-A750) = assay type: cell-based, human; conditions: Homo sapiens
[1] = system: PC-9ER (EGFR delE746-A750/T790M); assay type: cell-based, human; conditions: Homo sapiens, PC-9/ER; EGFR mutant cell line; range of GI50; read-out: GI50 PC9ER
H1975 (EGFR L858R/T790M) = assay type: cell-based, human; conditions: Homo sapiens, NCI-H1975
PC-9 (EGFR dE746-A750) = assay type: cell-based, human; conditions: Homo sapiens
SK-BR-3 (Her2 amp) = assay type: cell-based, human; conditions: Homo sapiens
H292 (EGFR WT) = assay type: cell-based; conditions: Homo sapiens, NCI-H292
Calu-3 (Her2 amp) = assay type: cell-based; conditions: Homo sapiens
A549 (EGFR WT) = assay type: cell-based, human; conditions: Homo sapiens
[2] = system: H1299 (EGFR wt, Nras Q61K); assay type: cell-based, human; conditions: Homo sapiens, NCI-H1299
[3] = system: A431 (EGFR WT, amplification and high expression); assay type: cell-based, human; conditions: Homo sapiens, A-431
[4] = system: H460 (EGFR wt, Kras G61H); assay type: cell-based, human; conditions: Homo sapiens, NCI-H460
N87 (HER2 Amp) = assay type: cell-based, human; conditions: Homo sapiens
AU565 (Her2 amp) = assay type: cell-based, human; conditions: Homo sapiens
[5] = HCC827, EGFR mutant cell line, range of GI50, read-out: GI50 HCC827
[6] = HCC827, EGFR dE746-A750, read-out: GI50
[7] = EGFR mutant cell line, range of GI50, read-out: GI50 H1975
[8] = H1975, EGFR L858R/T790M, read-out: GI50
[9] = EGFR mutant cell line, range of GI50, read-out: GI50 PC-9
[10] = PC-9, EGFR dE746-A750, read-out: GI50
[11] = SK-BR-3, HER2 positive cell line, range of GI50, read-out: GI50 SK-BR-3
[12] = SK-BR-3, EGFR wt, Her2 amp, read-out: GI50
[13] = Calu-3, EGFR wt, Her2 amp, read-out: GI50
[14] = A549, EGFR wild type cell line, range of GI50, read-out: GI50 A549
[15] = A549, EGFR wt, Kras G12S, read-out: GI50
[16] = EGFR wild type cell line, range of GI50, read-out: GI50 H1299
[17] = H1299, EGFR wt, Nras Q61K, read-out: GI50
[18] = EGFR wild type cell line, range of GI50, read-out: GI50 A431
[19] = EGFR wild type cell line, range of GI50, read-out: GI50 H460
[20] = H460, EGFR wt, Kras G61H, read-out: GI50
[21] = HER2 positive cell line, range of GI50, read-out: GI50 N87
[22] = N87, EGFR wt, Her2 amp, read-out: GI50
[23] = AU565, HER2 positive cell line, range of GI50, read-out: GI50 AU-565
[24] = AU565, EGFR wt, Her2 amp, read-out: GI50

| Compound | GI50 (HCC827 (EGFR dE746-A750); [5]) [nM] | GI50 (HCC827 (EGFR dE746-A750); [6]) [nM] | GI50 [1] [nM] | GI50 (H1975 (EGFR L858R/T790M); [7]) [nM] | GI50 (H1975 (EGFR L858R/T790M); [8]) [nM] | GI50 (PC-9 (EGFR dE746-A750); [9]) [nM] | GI50 (PC-9 (EGFR dE746-A750); [10]) [nM] | GI50 (SK-BR-3 (Her2 amp); [11]) [nM] | GI50 (SK-BR-3 (Her2 amp); [12]) [nM] | GI50 (H292 (EGFR WT); H292, EGFR wt, read-out: GI50) [nM] | GI50 (Calu-3 (Her2 amp); [13]) [nM] | GI50 (A549 (EGFR WT); [14]) [nM] | GI50 (A549 (EGFR WT); [15]) [nM] | GI50 [2, 16] [nM] | GI50 [2, 17] [nM] | GI50 ([3]; A431, EGFR wt, read-out: GI50) [nM] | GI50 [3, 18] [nM] | GI50 [4, 19] [nM] | GI50 (N87 (HER2 Amp); [21]) [nM] | GI50 (AU565 (Her2 amp); [23]) [nM] | also measured |
| --- | --- | --- | --- | --- | --- | --- | --- | --- | --- | --- | --- | --- | --- | --- | --- | --- | --- | --- | --- | --- | --- |
| C=CC(=O)Nc1cc(Nc2cc(Nc3ccc(F)c(Cl)c3)ncn2)c(OC)cc1N1CCN(C2CCN(C)CC2)CC1 [Compound 147, N-(5-(6-(3-chloro-4-fluoro-phenylamino)-pyrimidin-4-ylamino)-4-methoxyl-2-(4-(1-methylpiperidin-4-yl)-piperazin-1-yl)-phenyl)-acrylamide] | < 10 | 4.7 | < 10 | < 10 | 4.6 | < 10 | 0.58 | < 10 | 5.6 | > 1000 | 12.5 | > 1000 | 896 | > 1000 | > 1000 | 37.5 | 10 to 100 | > 1000 | < 10 | < 10 | GI50 [4, 20]: > 1000 nM; GI50 (N87 (HER2 Amp); [22]): 4.8 nM; GI50 (AU565 (Her2 amp); [24]): 2.6 nM |
| C=CC(=O)Nc1cc(Nc2cc(Nc3ccc(F)c(Cl)c3)ncn2)c(OC)cc1N(C)CCN(C)C [Compound 140, N-(5-(6-(3-chloro-4-fluoro-phenylamino)-pyrimidin-4-ylamino)-2-((2-dimethylamino-ethyl)-methyl-amino)-4-methoxyl-phenyl)-acrylamide] | < 10 | 1.1 | < 10 | < 10 | 3.8 | < 10 | 0.38 | < 10 | 5.6 | > 1000 | 12.5 | > 1000 | > 1000 | > 1000 | > 1000 | 37.5 | 10 to 100 | > 1000 | < 10 | < 10 | GI50 [4, 20]: > 1000 nM; GI50 (N87 (HER2 Amp); [22]): 4.8 nM; GI50 (AU565 (Her2 amp); [24]): 2.6 nM |
| C=CC(=O)Nc1cc(Nc2nccc(-n3ccc4c(OC)cccc43)n2)c(OC)cc1N(C)CCN(C)C [Compound 99, N-(5-(4-(4-methoxyl-1H-indol-1-yl)-pyrimidin-2-ylamino)-2-(2-(dimethylamino-ethyl)-methyl-amino)-4-methoxyl-phenyl)-acrylamide] | 10 to 100 | – | < 10 | < 10 | – | 10 to 100 | – | 10 to 100 | – | – | – | > 1000 | – | > 1000 | – | – | 100 to 1000 | > 1000 | < 10 | 10 to 100 | GI50 (H1975 (EGFR L858R/T790M); Table 15, 1000 nM to 0.03 nM serial dilution, read-out: GI50 H1975 (EGFR L858R/T790M)): 9.25 nM; GI50 (PC-9 (EGFR dE746-A750); Table 15, 1000 nM to 0.03 nM serial dilution, read-out: GI50 PC-9 (EGFR dE746-A750)): 14.1 nM; GI50 (H292 (EGFR WT); Table 15, 1000 nM to 0.03 nM serial dilution, read-out: GI50 H292 (EGFR WT)): > 1000 nM; GI50 (Calu-3 (Her2 amp); Calu-3, Table 16, 1000 nM to 0.03 nM serial dilution, read-out: GI50 Calu3 (HER2 amp)): 3.26 nM; GI50 (A549 (EGFR WT); A549, Table 15, 1000 nM to 0.03 nM serial dilution, read-out: GI50 A549 (EGFR WT)): > 1000 nM; GI50 (N87 (HER2 Amp); Table 16, 1000 nM to 0.03 nM serial dilution, read-out: GI50 N87 (HER2 amp)): 1.35 nM |
| C=CC(=O)Nc1cc(Nc2cc(-c3cn(C(C)C)c4ccccc34)ncn2)c(OC)cc1N(C)CCN(C)C [Compound 183] | < 10 | 9 | 10 to 100 | 10 to 100 | 12.5 | < 10 | 3.38 | 10 to 100 | 78.1 | > 1000 | 23.4 | > 1000 | > 1000 | > 1000 | > 1000 | 315 | 100 to 1000 | > 1000 | 10 to 100 | 10 to 100 | GI50 [4, 20]: > 1000 nM; GI50 (N87 (HER2 Amp); [22]): 19.5 nM; GI50 (AU565 (Her2 amp); [24]): 19.5 nM |
| C=CC(=O)Nc1cc(Nc2ncnc(Nc3cccc(F)c3)n2)c(OC)cc1N(C)CCN(C)C [Compound 114, N-(5-(4-(3-fluoro-phenylamino)-[1,3,5]triazin-2-ylamino)-2-((2-dimethylamino-ethyl)-methyl-amino)-4-methoxyl-phenyl)-acrylamide] | < 10 | 1.1 | 10 to 100 | 10 to 100 | 10 | < 10 | 2 | < 10 | 4.8 | > 1000 | 7.2 | > 1000 | > 1000 | > 1000 | > 1000 | 117 | 100 to 1000 | > 1000 | < 10 | < 10 | GI50 [4, 20]: > 1000 nM; GI50 (N87 (HER2 Amp); [22]): 4.8 nM; GI50 (AU565 (Her2 amp); [24]): 10 nM |
| C=CC(=O)Nc1cc(Nc2nccc(Nc3ccc(OCc4ccccn4)c(Cl)c3)n2)c(OC)cc1N(C)CCN(C)C [Compound 18, N-(5-(4-(3-chloro-4-(pyridin-2-methoxyl)phenylamino)pyrimidin-2-ylamino)-2-((2-(dimethylamino)ethyl)(methyl)amino)-4-methoxyl-phenyl)-acrylamide] | 10 to 100 | 9.4 | < 10 | 10 to 100 | 14.6 | 10 to 100 | 14.5 | 10 to 100 | 39.1 | > 1000 | 23.4 | > 1000 | > 1000 | > 1000 | > 1000 | 438 | 100 to 1000 | > 1000 | 10 to 100 | 10 to 100 | GI50 [4, 20]: > 1000 nM; GI50 (N87 (HER2 Amp); [22]): 19.5 nM; GI50 (AU565 (Her2 amp); [24]): 15.6 nM |
